Results taken from PMC7811808, “Design, synthesis, and biological evaluation of novel 5,6,7-trimethoxy quinolines as potential anticancer agents and tubulin polymerization inhibitors” (Iranian Journal of Basic Medical Sciences, 2020).
Where two headings read alike, the source gives them in different places.

How the values were obtained:
[1] = system: A2780/RCIS; assay: MTT antiproliferative activity assay; format: cell-based; settings: Homo sapiens, read-out: IC50 A2780/RCIS
Experimental: (§1) The MTT assay was done by seeding 5.0×10^3 human cancer cells or normal cells per well in 96-well plates ([34]-[36]). Following overnight incubation of the cells in 5% CO2 at 37 °C, culture medium of each well was exchanged with medium having reference anti-cancer agent CA-4 as well as different concentrations of synthesized compounds and RPMI (no drug) negative control and cells were incubated 48 hr. Then MTT solution (25 μl, 4 mg ml ^-1) was added to each well and the cells were incubated at 37 °C (for 3 hr). Finally, formazan crystals were dissolved in DMSO (100 μl) and plates were read in a plate reader (Synergy H4, USA) at 540 nm. The cytotoxic activity of the synthesized compounds was evaluated against different human cancer cell lines including […]-7 and MCF-7/MX, and normal cells by MTT assay. Combretastatin A-4 (CA-4) was used as the positive control.

[2] = system: A2780; assay: MTT antiproliferative activity assay; format: cell-based; settings: Homo sapiens, 48 hr
Experimental: as §1

[3] = system: MCF-7/MX; assay: MTT antiproliferative activity assay; format: cell-based; settings: Homo sapiens, MCF7/MX, read-out: IC50 MCF-7/MX
Experimental: as §1

[4] = system: MCF-7; assay: MTT antiproliferative activity assay; format: cell-based; settings: Homo sapiens, MCF7, 48 hr
Experimental: as §1

[5] = system: HUVEC; assay: MTT assay on normal cells; format: cell-based; settings: Homo sapiens, 48 hr
Experimental: as §1

[6] = system: A2780, A2780/RCIS, MCF-7 and MCF-7/MX; assay: MTT assay, statements over all four cancer cell lines; format: cell-based; settings: Homo sapiens, range over four cell lines, read-out: IC50 values range against all four human cancer cells
Experimental: as §1

[7] = target: T1, tubulin (Sus scrofa, UniProt P02550+P02554); assay: In vitro tubulin polymerization assay (fluorescence kit); format: biochemical; settings: compound 20 µM; CA-4 5 µM
T1 construct: purchased cytoskeleton BK011P
T1 sequence (P02550 whole entry): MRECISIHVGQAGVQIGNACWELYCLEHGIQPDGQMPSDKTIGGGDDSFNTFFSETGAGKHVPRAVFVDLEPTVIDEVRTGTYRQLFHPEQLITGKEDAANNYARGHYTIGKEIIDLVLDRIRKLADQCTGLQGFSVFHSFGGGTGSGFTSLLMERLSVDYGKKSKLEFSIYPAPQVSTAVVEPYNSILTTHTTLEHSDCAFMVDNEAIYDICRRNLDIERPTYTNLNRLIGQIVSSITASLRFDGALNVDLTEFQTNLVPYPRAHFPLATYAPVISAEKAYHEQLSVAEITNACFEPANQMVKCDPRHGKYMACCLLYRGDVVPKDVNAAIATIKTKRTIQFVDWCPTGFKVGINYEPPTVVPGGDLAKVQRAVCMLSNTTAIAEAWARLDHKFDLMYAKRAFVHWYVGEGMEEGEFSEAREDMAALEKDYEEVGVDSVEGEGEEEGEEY
T1 sequence (P02554 whole entry): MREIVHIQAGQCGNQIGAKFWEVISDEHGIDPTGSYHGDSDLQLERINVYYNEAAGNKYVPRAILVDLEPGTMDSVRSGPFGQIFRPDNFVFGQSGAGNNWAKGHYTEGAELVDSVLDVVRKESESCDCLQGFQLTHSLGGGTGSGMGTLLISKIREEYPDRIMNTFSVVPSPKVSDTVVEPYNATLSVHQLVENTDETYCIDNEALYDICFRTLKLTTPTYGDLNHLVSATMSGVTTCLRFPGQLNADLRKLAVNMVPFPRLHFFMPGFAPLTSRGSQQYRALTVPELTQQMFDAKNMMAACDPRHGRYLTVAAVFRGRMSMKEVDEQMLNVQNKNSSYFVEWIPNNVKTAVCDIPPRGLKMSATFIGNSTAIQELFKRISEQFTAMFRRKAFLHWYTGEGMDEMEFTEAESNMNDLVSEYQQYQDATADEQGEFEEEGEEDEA
Experimental: A commercial kit (cytoskeleton, cat. #BK011P) was used to evaluate the tubulin polymerization inhibition activity of compounds ([37]). Briefly, tubulin protein was added to tubulin buffer (80 mM PIPES, 2 mM MgCl2, 0.5 mM EGTA, 1 mM GTP, […], PH 6.9) and the acquired mixture was added to wells of a 96-well plate comprising the cytotoxic compounds or vehicle. Tubulin polymerization was observed by detecting the fluorescence augmentation due to the addition of a fluorescence reporter into microtubules as polymerization occurred. Polymerization was measured by excitation at 360 nm and emission at 420 nm for 1 hr at 1 min intervals in a plate reader (Synergy H4, USA). CA-4 (5 μM) and paclitaxel (3 μM) were used as positive destabilizing and positive stabilizing controls, respectively.
In order to check if the cytotoxic activity of our quinolines was correlated to their ability to inhibit tubulin, compounds 7e and 7f and CA4 (polymerization suppressor) and paclitaxel (polymerization promoter) were assessed for their activity in a microtubule polymerization assay.

[8] = system: A2780 cancer cells; assay: Cell cycle analysis by flow cytometry (PI); format: cell-based, human; settings: 48 hr
Excerpt: (§2) Flow cytometry with propidium iodide (PI) was used to analyze the cell numbers in the cell cycle phases. […] Flowjo software 7.6 was used to analyze the data regarding the cell numbers in different phases of the cell cycle.
(§3) Tubulin inhibitors arrest cell cycle at the G2/M phase in cancer cells owing to destruction of the microtubular cytoskeleton. To get more understanding of the mechanism of action, the effects of compounds 7f and 7e on the cell cycle were examined by ﬂow cytometry in four human cancer cell lines (MCF-7, MCF-7/MX, A2780, and A2780/RCIS). […] When A2780 cancer cells were treated with 7f and 7e for 48 hr, the percentage of cells in the G2/M phase was 15.70% (7f, 1 μM), 17.74% (7f, 10 μM), 23.30% (7e, 5μM), and 4.15% (7e, 15μM) compared with the negative control (4.84%). Moreover, the percentage of A2780 cancer cells in the subG1 phase was 18.58% (7f, 10 μM) and 68.16% (7e, 15 μM).

[9] = system: A2780/RCIS cancer cells; assay: Cell cycle analysis by flow cytometry (PI); format: cell-based, human; settings: 48 hr
Excerpt: as §2, §3

[10] = system: MCF-7 cancer cells; assay: Cell cycle analysis by flow cytometry (PI); format: cell-based, human; settings: 48 hr
Excerpt: as §2, §3

[11] = system: MCF-7/MX cancer cells; assay: Cell cycle analysis by flow cytometry (PI); format: cell-based, human; settings: 48 hr
Excerpt: as §2, §3

Compound | IC50 ([1]; A2780, 48 h) | IC50 [2] | IC50 ([3]; 48 h) | IC50 [4] | IC50 [5] | IC50 ([1]; A2780, MTT, 48 hr) | IC50 ([3]; MTT, 48 hr) | melting point | IC50 [6] | tubulin polymerization inhibition [7] | G2/M ([8]; A2780, 1 μM) | G2/M ([8]; A2780, 10 μM) | SubG1 ([8]; A2780, 10 μM) | G2/M ([9]; 1 μM) | G2/M ([9]; 5 μM) | G2/M ([10]; MCF-7, 1 μM) | G2/M ([10]; MCF-7, 10 μM) | G2/M ([11]; 10 μM) | G2/M ([11]; 20 μM)
COc1ccc(/C=C\c2cc(OC)c(OC)c(OC)c2)cc1O [CA-4, Combretastatin A-4, reference compound] | 0.229 ± 0.11 µM | 0.249 ± 0.091 µM | 1.49 ± 0.27 µM | 0.438 ± 0.15 µM | 0.565 ± 0.26 µM |  |  |  |  |  |  |  |  |  |  |  |  |  | 
COc1ccc(Nc2cc(C)nc3cc(OC)c(OC)c(OC)c23)cc1 [Compound 7a, 5,6,7-Trimethoxy-N-(4-methoxyphenyl)-2-methylquinolin-4-amine] |  | 16.4 ± 2.13 µM |  | 55.3 ± 5.37 µM | 55.9 ± 3.87 µM | 29.9 ± 2.87 µM | 65.9 ± 4.42 µM | 191 to 194 °C |  |  |  |  |  |  |  |  |  |  | 
COc1ccc(Nc2cc(C)nc3cc(OC)c(OC)c(OC)c23)cc1OC [Compound 7b, N-(3,4-dimethoxyphenyl)-5,6,7-trimethoxy-2-methylquinolin-4-amine] |  | 27.1 ± 3.25 µM |  | 63.7 ± 4.35 µM | > 100 µM | 51.5 ± 4.86 µM | 62.8 ± 5.27 µM | 182 to 185 °C |  |  |  |  |  |  |  |  |  |  | 
COc1cc(Nc2cc(C)nc3cc(OC)c(OC)c(OC)c23)cc(OC)c1OC [Compound 7c, 5,6,7-Trimethoxy - 2-methyl - -N-(3,4,5-methoxyphenyl) quinolin-4-amine] |  | 80.2 ± 5.23 µM |  | > 100 µM | > 100 µM | > 100 µM | 69.8 ± 4.85 µM | 175 to 178 °C |  |  |  |  |  |  |  |  |  |  | 
COc1ccc(Nc2cc(C)nc3cc(OC)c(OC)c(OC)c23)cc1O [Compound 7d, 2-Methoxy-5-((5,6,7-trimethoxy-2-methylquinolin-4-yl)amino)phenol] |  | 29.6 ± 2.98 µM |  | 53.6 ± 3.66 µM | 62.7 ± 5.42 µM | 44.7 ± 2.76 µM | 78.2 ± 5.37 µM | 182 to 184 °C |  |  |  |  |  |  |  |  |  |  | 
COc1cc2nc(C)cc(Nc3ccc(Oc4ccccc4)cc3)c2c(OC)c1OC [Compound 7f, 5,6,7-Trimethoxy-2-methyl-N-(4-phenoxyphenyl)quinolin-4-amine] |  | 8.43 ± 1.85 µM |  | 10.1 ± 1.63 µM | 8.9 ± 1.26 µM | 5.02 ± 1.14 µM | 9.04 ± 1.2 µM | 192 to 195 °C | 5.02 to 35.8 µM | inhibited tubulin polymerization in a way similar to that of CA-4 | 15.70% | 17.74% | 18.58% | 20.68% | 19.38% | 19.01% | 24.01% | 23.73% | 29.37%
COc1cc2nc(C)cc(Nc3ccccc3Oc3ccccc3)c2c(OC)c1OC [Compound 7g, 5,6,7-Trimethoxy-2-methyl-N-(2-phenoxyphenyl)quinolin-4-amine] |  | 12.1 ± 2.17 µM |  | 35.8 ± 3.29 µM | 27.7 ± 2.63 µM | 10.1 ± 2.25 µM | 16.3 ± 2.39 µM | 150 to 153 °C | 5.02 to 35.8 µM |  |  |  |  |  |  |  |  |  | 
COc1cc2nc(/C=C/c3ccccc3)cc(Cl)c2c(OC)c1OC [Compound 9a, E-4-Chloro-5,6,7-trimethoxy-2-styrylquinoline] |  | 30.5 ± 3.22 µM |  | 63.7 ± 5.27 µM | 74 ± 5.95 µM | 46.2 ± 3.57 µM | 64.6 ± 5.29 µM | 110 to 113 °C |  |  |  |  |  |  |  |  |  |  | 
COc1cc2nc(/C=C/c3ccc(C)cc3)cc(Cl)c2c(OC)c1OC [Compound 9b, E-4-Chloro-5,6,7-trimethoxy-2-(4-methylstyryl)quinoline] |  | > 100 µM |  | > 100 µM | > 100 µM | > 100 µM | > 100 µM | 153 to 155 °C |  |  |  |  |  |  |  |  |  |  | 
COc1cc2nc(/C=C/c3ccc(F)cc3)cc(Cl)c2c(OC)c1OC [Compound 9c, E-4-Chloro-5,6,7-trimethoxy-2-(4-fluorostyryl)quinoline] |  | > 100 µM |  | > 100 µM | > 100 µM | > 100 µM | > 100 µM | 173 to 176 °C |  |  |  |  |  |  |  |  |  |  | 
COc1ccc(/C=C/c2cc(Cl)c3c(OC)c(OC)c(OC)cc3n2)cc1 [Compound 9d, E-4-Chloro-5,6,7-trimethoxy-2-(4-methoxystyryl)quinoline] |  | 39.9 ± 3.74 µM |  | 42.8 ± 3.48 µM | 96.2 ± 5.38 µM | 33.8 ± 3.48 µM | 44.1 ± 3.57 µM |  |  |  |  |  |  |  |  |  |  |  | 
COc1ccc(/C=C/c2cc(Cl)c3c(OC)c(OC)c(OC)cc3n2)cc1OC [Compound 9e, E-4-Chloro-5,6,7-trimethoxy-2-(3,4-dimethoxystyryl)quinoline] |  | > 100 µM |  | > 100 µM | > 100 µM | > 100 µM | > 100 µM | 122 to 124 °C |  |  |  |  |  |  |  |  |  |  | 
COc1cc(/C=C/c2cc(Cl)c3c(OC)c(OC)c(OC)cc3n2)cc(OC)c1OC [Compound 9f, E-4-Chloro-5,6,7-trimethoxy-2-(3,4,5-trimethoxystyryl)quinoline] |  | 47.9 ± 4.25 µM |  | > 100 µM | > 100 µM | 11.7 ± 2.63 µM | 28 ± 2.64 µM | 163 to 165 °C |  |  |  |  |  |  |  |  |  |  | 
COc1cc2nc(/C=C/c3ccc([N+](=O)[O-])cc3)cc(Cl)c2c(OC)c1OC [Compound 9g, E-4-Chloro-5,6,7-trimethoxy-2-(4-nitrostyryl)quinoline] |  | > 100 µM |  | > 100 µM | > 100 µM | > 100 µM | > 100 µM | 162 to 164 °C |  |  |  |  |  |  |  |  |  |  | 
